Measured values as given in patent publication US20070003586A1, “Insecticidal coating for use on cellulosic substrates” (priority 2005, published 2007).

Experiment: LD50 (lethal dose 50%) value
Conditions: rat, in vivo; insecticide as such; subjects typically rats
Experimental: According to one aspect of the present invention, an insecticidal coating composition for use on cellulosic substrates is provided comprising a polyvinyl acetate emulsion; a vinyl acetate ethylene copolymer emulsion; and an insecticide having an LD50 value of between about 14,500 to about 15,500 mg/kg. By “LD50” value, it is meant “lethal dose 50%” value, which indicates the quantity of a substance, which, when administered to a population of subjects (typically rats), will cause 50% of the subjects to perish.

SMILES: CC1(C)[C@H](C(=O)O[C@H](C#N)c2cccc(Oc3ccccc3)c2)[C@@H]1C=C(Br)Br [deltamethrin, (S)-cyano-3-phenoxybenzyl(1R)-cis-3-(2,2-dibromovinyl)-2,2-dimethylcyclopropane carboxylate]
- LD50: ~15000 mg/kg
